Data published in publication PMC6520443, “Molecular Fingerprints for a Novel Enzyme Family in Actinobacteria with Glucosamine Kinase Activity” (mBio, 2019).

Columns and labels:
[1] = target: T1, SjGlcNK (Streptacidiphilus jiangxiensis, UniProt A0A1H7TQR5); assay: kinase kinetics, Michaelis-Menten fit; format: biochemical; settings: co-substrate ATP
T1 construct: gene SAMN05414137_114149; recombinant, E. coli BL21(DE3), nickel NTA and size exclusion; monomer in solution; C-lobe residues 194-438
T1 sequence (A0A1H7TQR5 1-438): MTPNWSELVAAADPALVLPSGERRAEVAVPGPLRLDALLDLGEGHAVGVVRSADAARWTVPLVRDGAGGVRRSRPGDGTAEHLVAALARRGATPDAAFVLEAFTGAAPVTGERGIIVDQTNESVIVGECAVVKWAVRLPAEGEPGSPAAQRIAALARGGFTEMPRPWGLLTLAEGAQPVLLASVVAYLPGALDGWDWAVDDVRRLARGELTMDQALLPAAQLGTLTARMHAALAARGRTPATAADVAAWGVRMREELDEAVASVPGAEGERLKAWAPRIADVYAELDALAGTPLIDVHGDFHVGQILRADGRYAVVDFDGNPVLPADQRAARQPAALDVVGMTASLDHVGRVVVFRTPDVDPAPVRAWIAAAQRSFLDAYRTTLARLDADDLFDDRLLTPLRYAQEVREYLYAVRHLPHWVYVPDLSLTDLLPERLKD

[2] = target: T2, MvMak (Mycolicibacterium austroafricanum, UniProt A1TH50); assay: ADP-Glo kinase assay, relative activity; format: biochemical; settings: 5 mM sugar, 1 mM ATP, 2 μM enzyme, room temperature, 5 min
T2 construct: gene mak; recombinant, produced as previously described
T2 sequence (A1TH50 whole entry): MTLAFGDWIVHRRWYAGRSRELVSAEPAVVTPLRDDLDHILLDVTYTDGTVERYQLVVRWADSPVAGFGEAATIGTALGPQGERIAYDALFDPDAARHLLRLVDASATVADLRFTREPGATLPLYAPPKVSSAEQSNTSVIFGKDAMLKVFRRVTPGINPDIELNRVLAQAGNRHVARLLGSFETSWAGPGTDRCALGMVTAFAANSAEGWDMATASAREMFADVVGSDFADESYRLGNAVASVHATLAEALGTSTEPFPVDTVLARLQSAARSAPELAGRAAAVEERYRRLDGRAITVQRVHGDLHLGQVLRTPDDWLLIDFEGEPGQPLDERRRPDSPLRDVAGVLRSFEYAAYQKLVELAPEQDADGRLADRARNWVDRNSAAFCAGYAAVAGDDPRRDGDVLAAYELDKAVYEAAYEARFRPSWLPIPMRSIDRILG

Km [1]	SMILES	ADP-Glo kinase assay, relative activity [2]
> 100 mM	OC[C@H]1OC(O)[C@H](O)[C@@H](O)[C@@H]1O (some centres unmarked) [glucose]	–
–	OC[C@H]1O[C@H](O[C@H]2[C@H](O)[C@@H](O)C(O)O[C@@H]2CO)[C@H](O)[C@@H](O)[C@@H]1O (some centres unmarked) [maltose]	MvMak uses exclusively maltose as the substrate acceptor
